The source of these data is patent US10519152B2, “Compounds and their use in treating cancer” (AstraZeneca AB, priority 2017, dated 2019).

The structures appear in SMILES notation.

The target of the experiment is T1, Estrogen Receptor (ERα) in MCF-7 human ductal carcinoma breast cell line (Homo sapiens, UniProt P03372).
T1 construct: endogenous in cells; host or cells: MCF-7
T1 sequence (P03372 1-595): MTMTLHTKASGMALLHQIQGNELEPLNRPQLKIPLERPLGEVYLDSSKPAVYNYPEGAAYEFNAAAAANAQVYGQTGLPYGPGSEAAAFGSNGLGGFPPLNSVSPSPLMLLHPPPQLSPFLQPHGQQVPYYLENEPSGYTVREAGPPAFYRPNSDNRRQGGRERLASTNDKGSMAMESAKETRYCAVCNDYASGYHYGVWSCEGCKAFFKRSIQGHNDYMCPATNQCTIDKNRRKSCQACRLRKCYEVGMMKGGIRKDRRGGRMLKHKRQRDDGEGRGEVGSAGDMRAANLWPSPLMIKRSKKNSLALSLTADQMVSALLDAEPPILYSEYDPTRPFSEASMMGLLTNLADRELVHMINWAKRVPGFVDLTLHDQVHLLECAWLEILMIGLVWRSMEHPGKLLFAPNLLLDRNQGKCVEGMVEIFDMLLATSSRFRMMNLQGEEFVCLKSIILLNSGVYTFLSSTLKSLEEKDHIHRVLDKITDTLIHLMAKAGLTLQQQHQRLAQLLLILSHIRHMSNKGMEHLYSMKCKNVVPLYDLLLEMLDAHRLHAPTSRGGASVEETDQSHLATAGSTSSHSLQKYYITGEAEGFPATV
In words: MCF-7 ER degradation assay (cell based immuno-fluorescence). The settings on record: MCF-7 cells; for ER degradation ≥ 90% at 0.3 μM: ER degradation by fulvestrant at 0.3 μM is defined as 100%; for DC50: 18-22 hours incubation, 50% reduction of ERα expression, single experiment or average of two or more, read-out: MCF-7 ER degradation IC50. In outline: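 MCF-7 human ductal carcinoma breast cells were seeded at 3.75×10^4 cells per mL (40 μL per well) in 384 well plates with phenol red free DMEM containing 2 mM L-Glutamine and 5% (v/v) Charcoal/Dextran treated foetal calf serum. After overnight culture, compounds were acoustically dispensed, incubated 18-22 hours, then cells were formaldehyde-fixed and immunostained for ERα.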

For `Cc1ncsc1-c1ccc([C@@H](CN)NC(=O)[C@@H]2C[C@@H](O)CN2C(=O)[C@@H](NC(=O)COCCOCCOCCOc2cc(F)c([C@@H]3c4[nH]c5ccccc5c4C[C@@H](C)N3CC(C)(C)F)c(F)c2)C(C)(C)C)cc1` [Example 106, (2S,4R)—N-[(1S)-2-amino-1-[4-(4-methylthiazol-5-yl)phenyl]ethyl]-1-[(2S)-2-[[2-[2-[2-[2-[3,5-difluoro-4-[(1R,3R)-2-(2-fluoro-2-methyl-propyl)-3-methyl-1,3,4,9-tetrahydropyrido[3,4-b]indol-1-yl]phenoxy]ethoxy]ethoxy]ethoxy]acetyl]amino]-3,3-dimethyl-butanoyl]-4-hydroxy-pyrrolidine-2-carboxamide], the “ER degradation ≥ 90% at 0.3 μM” value is “•” and the DC50 was determined as 0.9 nM.

Regarding `Cc1ncsc1-c1ccc(CNC(=O)[C@@H]2C[C@@H](O)CN2C(=O)[C@@H](NC(=O)COCC/C=C/CCOc2cc(F)c([C@@H]3c4[nH]c5ccccc5c4C[C@@H](C)N3CC(C)(C)F)c(F)c2)C(C)(C)C)cc1` [Example 22, (2S,4R)-1-((S)-2-(2-(((E)-6-(3,5-Difluoro-4-((1R,3R)-2-(2-fluoro-2-methylpropyl)-3-methyl-2,3,4,9-tetrahydro-1H-pyrido[3,4-b]indol-1-yl)phenoxy)hex-3-en-1-yl)oxy)acetamido)-3,3-dimethylbutanoyl)-4-hydroxy-N-(4-(4-methylthiazol-5-yl)benzyl)pyrrolidine-2-carboxamide], the “ER degradation ≥ 90% at 0.3 μM” value is “•” and the DC50 is 3 nM.

Turning to `Cc1ncsc1-c1ccc(CNC(=O)[C@@H]2C[C@@H](O)CN2C(=O)[C@@H](NC(=O)COCCc2ccc(COc3cc(F)c([C@@H]4c5[nH]c6ccccc6c5C[C@@H](C)N4CC(C)(C)F)c(F)c3)nc2)C(C)(C)C)cc1` [Example 158, (2S,4R)-1-((S)-2-(2-(2-(6-((3,5-Difluoro-4-((1R,3R)-2-(2-fluoro-2-methylpropyl)-3-methyl-2,3,4,9-tetrahydro-1H-pyrido[3,4-b]indol-1-yl)phenoxy)methyl)pyridin-3-yl)ethoxy)acetamido)-3,3-dimethylbutanoyl)-4-hydroxy-N-(4-(4-methylthiazol-5-yl)benzyl)pyrrolidine-2-carboxamide], the “ER degradation ≥ 90% at 0.3 μM” value is “•” and the DC50 came to 0.8 nM.

On to `Cc1ncsc1-c1ccc(CNC(=O)[C@@H]2C[C@@H](O)CN2C(=O)[C@@H](NC(=O)COCCC(C)(C)CCOc2cc(F)c([C@@H]3c4[nH]c5ccccc5c4C[C@@H](C)N3CC(C)(C)F)c(F)c2)C(C)(C)C)cc1` [Example 23, (2S,4R)-1-((S)-2-(2-((5-(3,5-Difluoro-4-((1R,3R)-2-(2-fluoro-2-methylpropyl)-3-methyl-2,3,4,9-tetrahydro-1H-pyrido[3,4-b]indol-1-yl)phenoxy)-3,3-dimethylpentyl)oxy)acetamido)-3,3-dimethylbutanoyl)-4-hydroxy-N-(4-(4-methylthiazol-5-yl)benzyl)pyrrolidine-2-carboxamide], for which the “ER degradation ≥ 90% at 0.3 μM” value is recorded as “••” and the DC50 is 1 nM.
